Test results: ChEMBL document CHEMBL5046256, “The discovery of potent small molecule cyclic urea activators of STING” (Eur J Med Chem, 2022)
The source made the active and inactive calls. The calls are words filed in the database; no cut-off is given here.

What was measured:
Assay type in all cases: cell-based
[1] = system: HEK-293T; assay: Agonist activity against human STING R232H variant transfected in HEK-293T cells co-expressing ISRE.ISG54 at 1 uM by luciferase reporter gene assay relative to control
[2] = system: HEK-293T; assay: Agonist activity against human STING R232H variant transfected in HEK-293T cells co-expressing ISRE.ISG54 at 5 uM by luciferase reporter gene assay relative to control
[3] = Agonist activity against human STING R232H variant transfected in HEK-293T cells co-expressing ISRE.ISG54 by luciferase reporter gene assay

SMILES	Activity [2]	EC50 ([3]; Homo sapiens, HEK-293T) [nM]	other results
CN1Cc2ccc(C(=O)NCc3c(F)cc(F)cc3F)cc2N(Cc2c(F)cccc2C#N)C1=O			Activity [1]: 15%
Cc1ccc(CNC(=O)c2ccc3c(c2)N(Cc2cc(F)cc(F)c2)C(=O)N(C)C3)o1	16%		
Cn1cnc(N2Cc3ccc(C(=O)NCc4c(F)cc(F)cc4F)cc3N(Cc3c(F)cccc3Cl)C2=O)c1	inactive		
CN1Cc2ccc(C(=O)NCc3ccc4c(c3)CC(=O)N4)cc2N(Cc2c(F)cccc2Cl)C1=O	2%		
Cc1nccc(CN2C(=O)N(C)[C@@H](C)c3ccc(C(=O)NCc4c(F)cc(F)cc4F)cc32)c1F		47	
CN1Cc2ccc(C(=O)NCc3ccc(N4CCCC4=O)cc3)cc2N(Cc2c(F)cccc2Cl)C1=O	inactive		
Cc1nc(CN2C(=O)N(C)Cc3ccc(C(=O)NCc4c(F)cc(F)cc4F)cc32)co1	13%		
CC1c2ccc(C(=O)NCc3c(F)cc(F)cc3F)cc2N(Cc2cc(F)cc(F)c2)C(=O)N1C (racemic)			EC50 ([3]; hek-293t): 470 nM
CN1Cc2ccc(C(=O)NCc3cccc(C(=O)N4CCCC4)c3)cc2N(Cc2c(F)cccc2Cl)C1=O	inactive		
CC1c2ccc(C(=O)NCc3c(F)cc(F)cc3F)cc2N(Cc2c(F)cccc2Cl)C(=O)N1C (stereo not given)		29	
Cc1ccc(Cl)c(CN2C(=O)N(C)Cc3ccc(C(=O)NCc4c(F)cc(F)cc4F)cc32)c1F		403	Activity ([2]; filed as agonist): 68%
CN1Cc2ccc(C(=O)NCc3c(F)cc(F)cc3F)cc2N(Cc2cn3ccccc3n2)C1=O	16%		
C[C@H]1c2ccc(C(=O)NCc3c(F)cc(F)cc3F)cc2N(Cc2c(F)cncc2F)C(=O)N1C		169	
CN1Cc2ccc(C(=O)NCc3cccc(N4CCOCC4)c3)cc2N(Cc2c(F)cccc2Cl)C1=O	inactive		
CN1Cc2ccc(C(=O)NCc3c(F)cc(F)cc3F)cc2N(Cc2c(F)cccc2Cl)C1=O		133	
CN1Cc2ccc(CNCc3c(F)cc(F)cc3F)cc2N(Cc2c(F)cccc2Cl)C1=O	3%		
CC1c2ccc(C(=O)NCc3c(F)cc(F)cc3F)cc2N(Cc2ccccc2F)C(=O)N1C (racemic)		153	
CN1Cc2ccc(C(=O)NCc3cccc(-c4ncco4)c3)cc2N(Cc2c(F)cccc2Cl)C1=O	inactive		
CC1c2ccc(C(=O)NCc3c(F)cc(F)cc3F)cc2N(Cc2c(F)cccc2S(C)(=O)=O)C(=O)N1C (stereo not given)			Activity ([1]; filed as agonist): 61%
CN1Cc2ccc(C(=O)NCc3ccc(F)cc3F)cc2N(Cc2cc(F)cc(F)c2)C1=O		450	
O=C(NCc1c(F)cc(F)cc1F)c1ccc2c(c1)N(Cc1cc(F)cc(F)c1)C(=O)N(C1CC1)C2	13%		

SMILES	Activity [2]	EC50 ([3]; Homo sapiens, HEK-293T) [nM]	other results
Cc1ccc(CN2C(=O)N(C)[C@@H](C)c3ccc(C(=O)NCc4c(F)cc(F)cc4F)cc32)c(F)c1		135	
CN1Cc2ccc(C(=O)NCc3ccccc3F)cc2N(Cc2c(F)cccc2Cl)C1=O			Activity [1]: 34%
Cc1cc(CN2C(=O)N(C)C(C)c3ccc(C(=O)NCc4c(F)cc(F)cc4F)cc32)ccn1 (stereo in doubt; 74)			EC50 ([3]; hek-293t): 816 nM
C[C@H]1c2ccc(C(=O)NCc3c(F)cc(F)cc3F)cc2N(Cc2ncccc2F)C(=O)N1C		1040	
Cc1nccc(CN2C(=O)N(C)C(C)c3ccc(C(=O)NCc4c(F)cc(F)cc4F)cc32)c1F (stereo not given)		134	
CN1Cc2ccc(C(=O)NCc3cccc4c3OCO4)cc2N(Cc2c(F)cccc2Cl)C1=O	4%		
Cc1cc(CN2C(=O)N(C)Cc3ccc(C(=O)NCc4c(F)cc(F)cc4F)cc32)nn1C	14%		
CN1Cc2ccc(C(=O)NCc3c(F)cc(F)cc3F)cc2N(Cc2cc(F)cc(F)c2)C1=O		274	
CN1Cc2ccc(C(=O)NCc3ccc4c(c3)NCCO4)cc2N(Cc2c(F)cccc2Cl)C1=O	inactive		
CN1Cc2ccc(C(=O)NCc3ccc4ccoc4c3)cc2N(Cc2c(F)cccc2Cl)C1=O			Activity ([2]; filed as agonist): 84%
Cc1ccc(Cl)c(CN2C(=O)N(C)C(C)c3ccc(C(=O)NCc4c(F)cc(F)cc4F)cc32)c1F (stereo not given)		60	
CC1c2ccc(C(=O)NCc3c(F)cc(F)cc3F)cc2N(Cc2ccc(F)cc2)C(=O)N1C (stereo not given)		200	
CN1Cc2ccc(C(=O)NCc3cccc(-n4cccn4)c3)cc2N(Cc2c(F)cccc2Cl)C1=O	inactive		
CN1Cc2ccc(C(=O)NCc3cnc(-c4ccccc4)s3)cc2N(Cc2c(F)cccc2Cl)C1=O	inactive		
CN1Cc2ccc(C(=O)NCc3c(F)cc(F)cc3F)cc2N(Cc2ccccc2Cl)C1=O			Activity ([2]; filed as agonist): 76%
Cc1ccc(F)c(CN2C(=O)N(C)C(C)c3ccc(C(=O)NCc4c(F)cc(F)cc4F)cc32)n1 (stereo not given)			Activity ([1]; filed as agonist): 60%
CN1Cc2ccc(C(=O)NCc3c(F)cc(F)cc3F)cc2N(Cc2ccc(F)cc2)C1=O		196	
Cc1cc(CN2C(=O)N(C)C(C)c3ccc(C(=O)NCc4c(F)cc(F)cc4F)cc32)ccn1 (racemic) [listing 1 of 2 here]			Activity ([2]; filed as agonist): 61%
C[C@H]1c2ccc(C(=O)NCc3c(F)cc(F)cc3F)cc2N(Cc2c(Cl)cn(C)c(=O)c2F)C(=O)N1C		1760	
COc1cccc(F)c1CN1C(=O)N(C)Cc2ccc(C(=O)NCc3c(F)cc(F)cc3F)cc21		248	
CC1c2ccc(C(=O)NCc3c(F)cc(F)cc3F)cc2N(Cc2ccc(F)cc2Cl)C(=O)N1C (stereo not given)	25%		

SMILES	Activity [2]	EC50 ([3]; Homo sapiens, HEK-293T) [nM]	other results
Cc1cc(CN2C(=O)N(C)C(C)c3ccc(C(=O)NCc4c(F)cc(F)cc4F)cc32)ccn1 (racemic) [listing 2 of 2 here]			EC50 ([3]; hek-293t): 247 nM
C[C@H]1c2ccc(C(=O)NCc3c(F)cc(F)cc3F)cc2N(Cc2c(Cl)c[nH]c(=O)c2F)C(=O)N1C	16%		
CC1c2ccc(C(=O)NCc3c(F)cc(F)cc3F)cc2N(Cc2c(F)cccc2F)C(=O)N1C (racemic)			EC50 ([3]; hek-293t): 21 nM
CC1c2ccc(C(=O)NCc3c(F)cc(F)cc3F)cc2N(Cc2cc(F)cc(F)c2)C(=O)N1C (stereo in doubt; 68)			EC50 ([3]; hek-293t): 117 nM
Cc1cccc(CN2C(=O)N(C)[C@@H](C)c3ccc(C(=O)NCc4c(F)cc(F)cc4F)cc32)c1F		47	
CN1Cc2ccc(C(=O)NCc3ccc(C(F)(F)F)nc3)cc2N(Cc2c(F)cccc2Cl)C1=O	inactive		
CC1c2ccc(C(=O)NCc3c(F)cc(F)cc3F)cc2N(Cc2ccc(Cl)cc2F)C(=O)N1C (stereo not given)			Activity ([1]; filed as agonist): 65%
CC1c2ccc(C(=O)NCc3c(F)cc(F)cc3F)cc2N(Cc2ccccc2F)C(=O)N1C (stereo in doubt; 98)			EC50 ([3]; hek-293t): 122 nM
CC1c2ccc(C(=O)NCc3c(F)cc(F)cc3F)cc2N(Cc2ccccc2)C(=O)N1C (stereo not given)		270	
CN1Cc2ccc(C(=O)NCc3ccc4occc4c3)cc2N(Cc2c(F)cccc2Cl)C1=O			Activity ([2]; filed as agonist): 70%
CON1Cc2ccc(C(=O)NCc3c(F)cc(F)cc3F)cc2N(Cc2c(F)cccc2Cl)C1=O			Activity ([2]; filed as agonist): 82%
CN1Cc2ccc(C(=O)NCc3cc4ccccc4o3)cc2N(Cc2cc(F)cc(F)c2)C1=O		2260	
CN1Cc2ccc(C(=O)NCc3cccc(-n4cncn4)c3)cc2N(Cc2c(F)cccc2Cl)C1=O	inactive		
CN1Cc2ccc(C(=O)NCc3c(F)cc(F)cc3F)cc2N(Cc2ccnn2C)C1=O	7%		
CC1c2ccc(C(=O)NCc3c(F)cc(F)cc3F)cc2N(Cc2cc(C(N)=O)ccc2F)C(=O)N1C (stereo not given)			Activity ([1]; filed as agonist): 71%
C[C@@H]1c2ccc(C(=O)NCc3c(F)cc(F)cc3F)cc2N(Cc2c(F)cccc2Cl)C(=O)N1C		2600	
CC1c2ccc(C(=O)NCc3c(F)cc(F)cc3F)cc2N(Cc2c(F)cc(Cl)cc2F)C(=O)N1C (stereo not given)		157	
Cc1cccc(F)c1CN1C(=O)N(C)Cc2ccc(C(=O)NCc3c(F)cc(F)cc3F)cc21		317	
Cc1cccc(CN2C(=O)N(C)C(C)c3ccc(C(=O)NCc4c(F)cc(F)cc4F)cc32)c1F (stereo not given)		91	
Cc1cccc(CN2C(=O)N(C)Cc3ccc(C(=O)NCc4c(F)cc(F)cc4F)cc32)c1F		369	
CN1Cc2ncc(C(=O)NCc3c(F)cc(F)cc3F)cc2N(Cc2c(F)cccc2Cl)C1=O			Activity ([2]; filed as agonist): 76%

SMILES	Activity [2]	EC50 ([3]; Homo sapiens, HEK-293T) [nM]	other results
Cc1ccc(Cl)c(CN2C(=O)N(C)[C@@H](C)c3ccc(C(=O)NCc4c(F)cc(F)cc4F)cc32)c1F		38	
CN1Cc2ccc(C(=O)NCc3c(F)cc(F)cc3F)cc2N(Cc2ccc(F)cc2F)C1=O		204	
CN1Cc2ccc(C(=O)NCc3c(F)cc(F)cc3F)cc2N(Cc2cn(C)cn2)C1=O	7%		
Cc1ncc(CN2C(=O)N(C)Cc3ccc(C(=O)NCc4c(F)cc(F)cc4F)cc32)s1		1710	
CC1c2ccc(C(=O)NCc3c(F)cc(F)cc3F)cc2N(Cc2ccncc2F)C(=O)N1C (stereo not given)		388	
C[C@H]1c2ccc(C(=O)NCc3c(F)cc(F)cc3F)cc2N(Cc2c(F)ccc(F)c2Cl)C(=O)N1C		36	
O=C(NCc1c(F)cc(F)cc1F)c1ccc2c(c1)N(Cc1cc(F)cc(F)c1)C(=O)NC2		2340	
Cc1cc(CN2C(=O)N(C)Cc3ccc(C(=O)NCc4c(F)cc(F)cc4F)cc32)no1			Activity ([2]; filed as agonist): 68%
Cc1ncc(Cl)c(CN2C(=O)N(C)C(C)c3ccc(C(=O)NCc4c(F)cc(F)cc4F)cc32)c1F (stereo not given)		39	
CN1Cc2ccc(C(=O)NCc3c(F)cc(F)cc3F)cc2N(Cc2ccccc2F)C1=O		191	
CN1Cc2ncc(C(=O)NCc3c(F)cc(F)cc3F)cc2N(Cc2cc(F)cc(F)c2)C1=O	19%		
CN1Cc2ccc(C(=O)NCc3c(F)cc(F)cc3F)cc2N(Cc2ccccc2)C1=O		980	
CN1Cc2ccc(C(=O)NCc3c(F)cc(F)cc3F)cc2N(Cc2cccc(C(N)=O)c2)C1=O			Activity ([2]; filed as agonist): 57%
CC1c2ccc(C(=O)NCc3c(F)cc(F)cc3F)cc2N(Cc2c(F)cccc2F)C(=O)N1C (stereo in doubt; 72)			EC50 ([3]; hek-293t): 51 nM
CN1Cc2ccc(C(=O)NCc3c(F)cc(F)cc3F)cc2N(Cc2ccncc2)C1=O		3340	
O=C(NCc1c(F)cc(F)cc1F)c1ccc2c(c1)N(Cc1c(F)cccc1Cl)C(=O)N(O)C2	8%		
CC1c2ccc(C(=O)NCc3c(F)cc(F)cc3F)cc2N(Cc2c(F)cccc2C(F)(F)F)C(=O)N1C (stereo not given)		181	
CN1Cc2ccc(C(=O)NCc3cccc(N4CCCC4=O)c3)cc2N(Cc2c(F)cccc2Cl)C1=O	inactive		
Cc1ncc(Cl)c(CN2C(=O)N(C)[C@@H](C)c3ccc(C(=O)NCc4c(F)cc(F)cc4F)cc32)c1F		37	
Cc1cccc(F)c1CN1C(=O)N(C)C(C)c2ccc(C(=O)NCc3c(F)cc(F)cc3F)cc21 (stereo not given)		41	
CN1Cc2ccc(C(=O)NCc3ccc4cnn(C)c4c3)cc2N(Cc2c(F)cccc2Cl)C1=O	inactive		
